# Measurements published in ChEMBL document CHEMBL1201861, “Genomics of Drug Sensitity in Cancer screening data, Wellcome Trust Sanger Institute”.
# Columns and labels:
# Assay in all cases: cells
# NCI-H1648 = format: functional, cell-based, Homo sapiens; details: Homo sapiens, NCI-H1648;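 further: cell viability assay measuring inhibition of NCI-H1648 cell growth, from the Sanger screening data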
# Description: SANGER: Inhibition of human NCI-H1648 cell growth in a cell viability assay.
# RXF 393 = format: functional, cell-based, Homo sapiens; details: Homo sapiens, RXF 393;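 further: growth inhibition of human RXF 393 cells, read out with a cell viability assay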
# Description: SANGER: Inhibition of human RXF393 cell growth in a cell viability assay.
# DMS-114 = format: functional, cell-based, Homo sapiens; details: Homo sapiens, DMS-114
# EC-GI-10 = format: functional, cell-based, Homo sapiens; details: Homo sapiens, EC-GI-10
# Description: SANGER: Inhibition of human EC-GI-10 cell growth in a cell viability assay.
# NCI-H1838 = format: functional, cell-based, Homo sapiens; details: Homo sapiens, NCI-H1838;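 further: growth inhibition of NCI-H1838 cells, determined with a cell viability readout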
# Description: SANGER: Inhibition of human NCI-H1838 cell growth in a cell viability assay.
# LOX IMVI = format: functional, cell-based, Homo sapiens; details: Homo sapiens, LOX IMVI
# Description: SANGER: Inhibition of human LOXIMVI cell growth in a cell viability assay.
# LB771-HNC = format: functional, cell-based, Homo sapiens; details: Homo sapiens, LB771-HNC;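 further: growth inhibition of LB771-HNC human cells, read out with a cell viability assay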
# Description: SANGER: Inhibition of human LB771-HNC cell growth in a cell viability assay.
# LU-134-A = format: functional, cell-based, Homo sapiens; details: Homo sapiens, LU-134-A
# Description: SANGER: Inhibition of human LU-134-A cell growth in a cell viability assay.
# SK-LMS-1 = format: functional, cell-based, Homo sapiens; details: Homo sapiens, SK-LMS-1;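 further: growth inhibition of human SK-LMS-1 cells, read out with a cell viability assay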
# Description: SANGER: Inhibition of human SK-LMS-1 cell growth in a cell viability assay.
# IST-SL1 = format: functional, cell-based, Homo sapiens; details: Homo sapiens, IST-SL1;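 further: growth inhibition of human IST-SL1 cells, read out with a cell viability assay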
# Description: SANGER: Inhibition of human IST-SL1 cell growth in a cell viability assay.
# SF-539 = format: functional, cell-based, Homo sapiens; details: Homo sapiens, SF-539;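 further: Read-out is a cell viability assay, with IC50 reflecting inhibition of cell growth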
# Description: SANGER: Inhibition of human SF539 cell growth in a cell viability assay.
# KU812 cell line = format: functional, cell-based, Homo sapiens; details: Homo sapiens, KU812;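 further: growth inhibition of KU812 cells, read out with a cell viability assay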
# Description: SANGER: Inhibition of human KU812 cell growth in a cell viability assay.
# MC116 = format: functional, cell-based, Homo sapiens; details: Homo sapiens, MC116;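 further: growth inhibition of MC116 cells, read out with a cell viability assay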
# Description: SANGER: Inhibition of human MC116 cell growth in a cell viability assay.
# ES4 = format: functional, cell-based, Homo sapiens; details: Homo sapiens, ES4;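 further: growth inhibition of human ES4 cells, read out by a cell viability assay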
# Description: SANGER: Inhibition of human ES4 cell growth in a cell viability assay.
# SNU1 = format: functional, cell-based, Homo sapiens; details: Homo sapiens, SNU1;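 further: growth inhibition of human NCI-SNU-1 cells, measured with a cell viability assay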
# Description: SANGER: Inhibition of human NCI-SNU-1 cell growth in a cell viability assay.
# UACC-257 = format: functional, cell-based, Homo sapiens; details: Homo sapiens, UACC-257
# Description: SANGER: Inhibition of human UACC-257 cell growth in a cell viability assay.
# MV4-11 = format: functional, cell-based, Homo sapiens, MV-4-11; details: Homo sapiens, MV4-11;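 further: cell viability readout measuring growth inhibition of human MV-4-11 cells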
# Description: SANGER: Inhibition of human MV-4-11 cell growth in a cell viability assay.
# NCI-H720 = format: functional, cell-based, Homo sapiens; details: Homo sapiens, NCI-H720;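 further: growth inhibition of human NCI-H720 cells determined by a cell viability assay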
# Description: SANGER: Inhibition of human NCI-H720 cell growth in a cell viability assay.
# AM-38 = format: functional, cell-based, Homo sapiens; details: Homo sapiens, AM-38;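 further: growth inhibition of AM-38 cells of human origin, read out by a cell viability assay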
# Description: SANGER: Inhibition of human AM-38 cell growth in a cell viability assay.
# ES3 = format: functional, cell-based, Homo sapiens; details: Homo sapiens, ES3;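 further: growth inhibition of ES3 cells, read out with a cell viability assay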
# Description: SANGER: Inhibition of human ES3 cell growth in a cell viability assay.
# KG-1 = format: functional, cell-based, Homo sapiens; details: Homo sapiens, KG-1;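 further: growth inhibition of KG-1 cells, read out by a cell viability assay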
# Description: SANGER: Inhibition of human KG-1 cell growth in a cell viability assay.
# NCI-H1581 = format: functional, cell-based, Homo sapiens; details: Homo sapiens, NCI-H1581;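 further: cell growth inhibition read out by a viability assay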
# Description: SANGER: Inhibition of human NCI-H1581 cell growth in a cell viability assay.
# KM12 = format: functional, cell-based, Homo sapiens; details: Homo sapiens, KM12;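 further: KM12 cell growth inhibition, read out with a cell viability assay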
# Description: SANGER: Inhibition of human KM12 cell growth in a cell viability assay.
# TGBC24TKB = format: functional, cell-based, Homo sapiens; details: Homo sapiens, TGBC24TKB;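 further: growth inhibition of human TGBC24TKB cells, read out with a cell viability assay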
# Description: SANGER: Inhibition of human TGBC24TKB cell growth in a cell viability assay.
# TGBC1TKB = format: functional, cell-based, Homo sapiens; details: Homo sapiens, TGBC1TKB;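 further: growth inhibition of TGBC1TKB cells, read out by a cell viability assay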
# Description: SANGER: Inhibition of human TGBC1TKB cell growth in a cell viability assay.
# Calu-6 = format: functional, cell-based, Homo sapiens; details: Homo sapiens, Calu-6;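 further: growth of human Calu-6 cells, read out by a cell viability assay, IC50 marking inhibition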
# Description: SANGER: Inhibition of human Calu-6 cell growth in a cell viability assay.
# TE-10 = format: functional, cell-based, Homo sapiens; details: Homo sapiens, TE-10;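 further: growth inhibition of TE-10 cells, measured by a cell viability assay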
# Description: SANGER: Inhibition of human TE-10 cell growth in a cell viability assay.
# DB = format: functional, cell-based, Homo sapiens; details: Homo sapiens, DB
# Description: SANGER: Inhibition of human DB cell growth in a cell viability assay.
# OVCAR-4 = format: functional, cell-based, Homo sapiens; details: Homo sapiens, OVCAR-4;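 further: growth inhibition of human OVCAR-4 cells, measured with a cell viability assay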
# Description: SANGER: Inhibition of human OVCAR-4 cell growth in a cell viability assay.
# OMC-1 = format: functional, cell-based, Homo sapiens; details: Homo sapiens, OMC-1;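 further: growth inhibition of the OMC-1 cell line, measured by a cell viability assay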
# Description: SANGER: Inhibition of human OMC-1 cell growth in a cell viability assay.
# NCI-H446 = format: functional, cell-based, Homo sapiens; details: Homo sapiens, NCI-H446;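 further: growth inhibition of NCI-H446 cells determined by a cell viability assay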
# Description: SANGER: Inhibition of human NCI-H446 cell growth in a cell viability assay.
# SW872 = format: functional, cell-based, Homo sapiens; details: Homo sapiens, SW872;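 further: growth inhibition of SW872 cells, read out by a viability assay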
# Description: SANGER: Inhibition of human SW872 cell growth in a cell viability assay.
# MS-1 = format: functional, cell-based, Homo sapiens; details: Homo sapiens, MS-1
# Description: SANGER: Inhibition of human MS-1 cell growth in a cell viability assay.
# K5 = format: functional, cell-based, Homo sapiens; details: Homo sapiens, K5
# Description: SANGER: Inhibition of human K5 cell growth in a cell viability assay.
# CCRF-CEM = format: functional, cell-based, Homo sapiens; details: Homo sapiens, CCRF-CEM;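 further: inhibition of CCRF-CEM cell growth, measured by a cell viability assay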
# Description: SANGER: Inhibition of human CCRF-CEM cell growth in a cell viability assay.
# HT = format: functional, cell-based, Homo sapiens; details: Homo sapiens, HT
# Description: SANGER: Inhibition of human HT cell growth in a cell viability assay.
# ETK-1 = format: functional, cell-based, Homo sapiens; details: Homo sapiens, ETK-1;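 further: growth inhibition of human ETK-1 cells, read out with a cell viability assay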
# Description: SANGER: Inhibition of human ETK-1 cell growth in a cell viability assay.
# HH = format: functional, cell-based, Homo sapiens; details: Homo sapiens, HH
# Description: SANGER: Inhibition of human HH cell growth in a cell viability assay.
# DSH1 = format: functional, cell-based, Homo sapiens; details: Homo sapiens, DSH1;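 further: growth inhibition of human DSH1 cells, measured with a cell viability readout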
# Description: SANGER: Inhibition of human DSH1 cell growth in a cell viability assay.
# C2BBe1 = format: functional, cell-based, Homo sapiens; details: Homo sapiens, C2BBe1;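 further: growth inhibition of C2BBe1 cells, read out through a viability assay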
# Description: SANGER: Inhibition of human C2BBe1 cell growth in a cell viability assay.
# SW 962 = format: functional, cell-based, Homo sapiens; details: Homo sapiens, SW 962;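 further: growth inhibition of human SW962 cells, read out by a cell viability assay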
# Description: SANGER: Inhibition of human SW962 cell growth in a cell viability assay.
# EW-24 = format: functional, cell-based, Homo sapiens; details: Homo sapiens, EW-24;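 further: human EW-24 cancer cell line, growth inhibition read out via a cell viability assay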
# Description: SANGER: Inhibition of human EW-24 cell growth in a cell viability assay.
# NOMO-1 = format: functional, cell-based, Homo sapiens; details: Homo sapiens, NOMO-1;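 further: growth inhibition of human NOMO-1 cells measured by a cell viability assay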
# Description: SANGER: Inhibition of human NOMO-1 cell growth in a cell viability assay.
# CAS-1 = format: functional, cell-based, Homo sapiens; details: Homo sapiens, CAS-1;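 further: growth inhibition of CAS-1 cells, measured with a cell viability assay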
# Description: SANGER: Inhibition of human CAS-1 cell growth in a cell viability assay.
# QIMR-WIL = format: functional, cell-based, Homo sapiens; details: Homo sapiens, QIMR-WIL;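 further: growth inhibition of QIMR-WIL cells, read out with a cell viability assay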
# Description: SANGER: Inhibition of human QIMR-WIL cell growth in a cell viability assay.
# L-428 = format: functional, cell-based, Homo sapiens; details: Homo sapiens, L-428
# Description: SANGER: Inhibition of human L-428 cell growth in a cell viability assay.
# TE-9 = format: functional, cell-based, Homo sapiens; details: Homo sapiens, TE-9;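 further: cell growth inhibition, measured with a cell viability readout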
# Description: SANGER: Inhibition of human TE-9 cell growth in a cell viability assay.
# SNB-75 = format: functional, cell-based, Homo sapiens; details: Homo sapiens, SNB-75;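 further: cell viability assay measuring growth inhibition of human SNB-75 cells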
# Description: SANGER: Inhibition of human SNB75 cell growth in a cell viability assay.
structure (smiles),measurement,setting,value
Cc1cn(-c2cc(NC(=O)c3ccc(C)c(Nc4nccc(-c5cccnc5)n4)c3)cc(C(F)(F)F)c2)cn1 [NILOTINIB],IC50,NCI-H1648,> 2000 nM
same,IC50,RXF 393,> 2000 nM
same,IC50,DMS-114,> 2000 nM
same,IC50,EC-GI-10,> 2000 nM
same,IC50,NCI-H1838,> 2000 nM
same,IC50,LOX IMVI,> 2000 nM
same,IC50,LB771-HNC,> 2000 nM
same,IC50,LU-134-A,> 2000 nM
same,IC50,SK-LMS-1,> 2000 nM
same,IC50,IST-SL1,> 2000 nM
same,IC50,SF-539,> 2000 nM
same,IC50,KU812 cell line,2.48 nM
same,IC50,MC116,> 2000 nM
same,IC50,ES4,> 2000 nM
same,IC50,SNU1,> 2000 nM
same,IC50,UACC-257,> 2000 nM
same,IC50,MV4-11,> 2000 nM
same,IC50,NCI-H720,> 2000 nM
same,IC50,AM-38,> 2000 nM
same,IC50,ES3,> 2000 nM
same,IC50,KG-1,> 2000 nM
same,IC50,NCI-H1581,> 2000 nM
same,IC50,KM12,> 2000 nM
same,IC50,TGBC24TKB,> 2000 nM
same,IC50,TGBC1TKB,> 2000 nM
same,IC50,Calu-6,> 2000 nM
same,IC50,TE-10,> 2000 nM
same,IC50,DB,> 2000 nM
same,IC50,OVCAR-4,> 2000 nM
same,IC50,OMC-1,> 2000 nM
same,IC50,NCI-H446,> 2000 nM
same,IC50,SW872,> 2000 nM
same,IC50,MS-1,> 2000 nM
same,IC50,K5,> 2000 nM
same,IC50,CCRF-CEM,> 2000 nM
same,IC50,HT,> 2000 nM
same,IC50,ETK-1,> 2000 nM
same,IC50,HH,> 2000 nM
same,IC50,DSH1,> 2000 nM
same,IC50,C2BBe1,> 2000 nM
same,IC50,SW 962,> 2000 nM
same,IC50,EW-24,> 2000 nM
same,IC50,NOMO-1,> 2000 nM
same,IC50,CAS-1,> 2000 nM
same,IC50,QIMR-WIL,> 2000 nM
same,IC50,L-428,> 2000 nM
same,IC50,TE-9,> 2000 nM
same,IC50,SNB-75,> 2000 nM
CS(=O)(=O)c1ccc(C(=O)Nc2ccc(Cl)c(-c3ccccn3)c2)c(Cl)c1 [VISMODEGIB],IC50,NCI-H1648,> 10000 nM
same,IC50,RXF 393,> 10000 nM
same,IC50,DMS-114,> 10000 nM
same,IC50,EC-GI-10,> 10000 nM
same,IC50,NCI-H1838,> 10000 nM
same,IC50,LOX IMVI,> 10000 nM
same,IC50,LB771-HNC,> 10000 nM
same,IC50,LU-134-A,> 10000 nM
same,IC50,SK-LMS-1,> 10000 nM
same,IC50,IST-SL1,> 10000 nM
same,IC50,SF-539,> 10000 nM
same,IC50,MC116,> 10000 nM
same,IC50,ES4,> 10000 nM
same,IC50,SNU1,> 10000 nM
same,IC50,UACC-257,> 10000 nM
same,IC50,MV4-11,> 10000 nM
same,IC50,AM-38,> 10000 nM
same,IC50,ES3,> 10000 nM
same,IC50,KG-1,> 10000 nM
same,IC50,NCI-H1581,> 10000 nM
same,IC50,KM12,> 10000 nM
same,IC50,TGBC24TKB,> 10000 nM
same,IC50,TGBC1TKB,> 10000 nM
same,IC50,Calu-6,> 10000 nM
same,IC50,TE-10,> 10000 nM
same,IC50,DB,> 10000 nM
same,IC50,OVCAR-4,> 10000 nM
same,IC50,OMC-1,> 10000 nM
same,IC50,NCI-H446,> 10000 nM
same,IC50,SW872,> 10000 nM
same,IC50,MS-1,> 10000 nM
same,IC50,K5,> 10000 nM
same,IC50,CCRF-CEM,> 10000 nM
same,IC50,HT,> 10000 nM
same,IC50,ETK-1,> 10000 nM
same,IC50,HH,> 10000 nM
same,IC50,DSH1,> 10000 nM
same,IC50,C2BBe1,> 10000 nM
same,IC50,SW 962,> 10000 nM
same,IC50,EW-24,> 10000 nM
same,IC50,NOMO-1,> 10000 nM
same,IC50,CAS-1,> 10000 nM
same,IC50,QIMR-WIL,> 10000 nM
same,IC50,L-428,> 10000 nM
same,IC50,TE-9,> 10000 nM
same,IC50,SNB-75,> 10000 nM
